Experimental findings from patent US10336735B2, “Small molecule inhibitors of fibrosis” (THE CALIFORNIA INSTITUTE FOR BIOMEDICAL RESEARCH, priority 2014, dated 2019) are described below.

As a reminder, the EC50 is the concentration giving half of the maximal effect. Read a high EC50 as weaker potency.

The subject of this assay is primary human lung fibroblasts and primary rodent HSCs. Kind of assay: High content imaging assay (α-SMA staining, cell morphology) of fibroblast to myofibroblast transdifferentiation, confirmed by Western blot and RT-PCR. The note with it: Homo sapiens, Fibroblast; imaging and western based activity. The text has this:
High content imaging assays have been established, using primary human lung fibroblasts and primary rodent HSCs, that enable the identification of small molecules that either inhibit myofibroblast formation/activation or induce the reversion of activated myofibroblasts to a quiescent fibroblast state. Conditions, involving serum starvation and subsequent TGF-β treatment, have been identified that facilitate robust in vitro transdifferentiation in a miniaturized (384 well plate) format that is amenable to high throughput small molecule screening. The inhibition assay is based on α-SMA immunofluorescent staining and cell morphology changes associated with fibroblast to myofibroblast transdifferentiation, Using the selective ALK-5 TGF-β1 receptor inhibitor ([…]) as a positive control, the inhibition assay has been used to initiate a screen of a collection of ˜100,000 small molecules that consists of bioactive small molecules and a diversity set that has been assembled based on 2D and 3D structural diversity and inherent “drug-likeness” properties. Preliminary screening led to the identification of multiple previously identified anti-fibrotic molecules.
A high content imaging assay, based on α-SMA staining and cell morphological changes associated with fibroblast to myofibroblast transdifferentiation, was established using primary human lung fibroblasts and primary rodent HSCs. Conditions, involving serum starvation and subsequent TGF-β treatment, were identified that facilitate robust in vitro transdifferentiation in a miniaturized (384 well plate) format that is amenable to high throughput small molecule screening. A selective ALK-5 TGF-β1 receptor inhibitor (SB-431542) was used as a positive control. […] This assay was used to evaluate compounds of Formula (I), (Ia), (II), (IIa), (III), (IIIa), (IV), (IVa), (IVb), (V), (Va), (VI), (VIa), (VIb), (VIc), (VII), (VIIa), (VIII), (VIIIa), (IX), (IXa), (X), or (Xa) generated from medicinal chemistry efforts.
The activity of Itraconazole and compounds of Formula (I), (Ia), (II), (IIa), (III), (IIIa), (IV), (IVa), (IVb), (V), (Va), (VI), (VIa), (VIb), (VIc), (VII), (VIIa), (VIII), (VIIIa), (IX), (IXa), (X), or (Xa) was confirmed by analyzing changes in gene expression of multiple genes associated with fibroblast to myofibroblast transdifferentiation using biochemical methods (i.e., Western blot and RT-PCR). These 4-day assays were used to evaluate sets of 6 compounds at a time in 4-point dose response fashion.
The EC50 for (imaging and western based) activity is graded as: +++=<500 nM; ++=500 nM to 5 μM; +=5 to 30 μM); −=>30 μM; NT=Not Tested.
For orientation: Immunoblotting shows a protein as a band on a membrane.
With `C#Cc1ccc([C@]2(Cn3cncn3)OC[C@@H](COc3ccc(N4CCN(c5ccc(-n6cnn(CCC7(C)N=N7)c6=O)cc5)CC4)cc3)O2)cc1` [Compound 192], the EC50 fell in the range of 0.5 to 5 µM.
Consider `CCC(C)n1ncn(-c2ccc(N3CCN(c4ccc(OCCCO[C@@H](Cn5nccn5)c5ccccc5)cc4)CC3)cc2)c1=O` (some centres unmarked) [Compound 142], for which the concentration for a half-maximal effect (EC50) was over 30 µM.
For `CCC(C)n1ncn(-c2ccc(N3CCN(c4ccc(OC[C@@H]5CO[C@@](Cn6nccn6)(c6ccccc6)O5)cc4)C(C)C3)cc2)c1=O` (some centres unmarked) [Compound 72], the EC50 lay in the range of 5 to 30 µM.
Then `CCC(C)n1ncn(-c2ccc(N3CCN(c4ccc(OC[C@@H]5CO[C@@](Cn6cccn6)(c6ccccc6C)O5)cc4)CC3)cc2)c1=O` (some centres unmarked) [Compound 95], with under 0.5 µM; and `CCC(C)n1ncn(-c2ccc(N3CCN(c4ccc(OC[C@@H]5CO[C@@](Cc6ccnnc6)(c6cccc(C#N)c6)O5)cc4)CC3)cc2)c1=O` (some centres unmarked) [Compound 130], with 0.5 to 5 µM; and `O=c1n(-c2ccc(N3CCN(c4ccc(OC[C@@H]5CO[C@@](Cn6nccn6)(c6ccc(Cl)cc6Cl)O5)cc4)CC3)cc2)cnn1CC1CCCC1` [Compound 14], with under 0.5 µM.
In turn, `CCC(C)n1ncn(-c2ccc(N3CCN(c4ccc(OC[C@@H]5CO[C@@](Cn6nccn6)(c6ccccc6)O5)cc4F)CC3)cc2)c1=O` (some centres unmarked) [Compound 58] had an EC50 of under 0.5 µM.
For the compound `CCC(C)n1ncn(-c2ccc(N3CCN(c4ccc(OC[C@@H]5CO[C@](Cc6ccnnc6)(c6cccc(C#N)c6)O5)cc4)CC3)cc2)c1=O` (some centres unmarked) [Compound 110], the EC50 lay within 5 to 30 µM.
The same measure for `CCC(C)n1ncn(-c2ccc(N3CCN(c4ccc(OC[C@@H]5CO[C@@](Cn6nc7ccccc7n6)(c6ccc(C#N)cc6C)O5)cc4)CC3)cc2)c1=O` (some centres unmarked) [Compound 50]: 0.5 to 5 µM; for `CCC(C)n1ncn(-c2ccc(N3CCN(c4ccc(OC[C@@H]5CO[C@](Cc6ccnnc6)(c6ccc(C(N)=O)cc6)O5)cc4)CC3)cc2)c1=O` (stereo partly drawn) [Compound 121, 4-((2S,4R)-4-((4-(4-(4-(1-sec-butyl-5-oxo-1H-1,2,4-triazol-4(5H)-yl)phenyl)piperazin-1-yl)phenoxy)methyl)-2-(pyridazin-4-ylmethyl)-1,3-dioxolan-2-yl)benzamide]: 5 to 30 µM.
The same measure for `CCC(C)n1ncn(-c2ccc(N3CCN(c4ccc(OC[C@@H]5CO[C@](Cc6ccnnc6)(c6cccc(Cl)c6)O5)cc4)CC3)cc2)c1=O` (some centres unmarked) [Compound 104]: 0.5 to 5 µM; for `CCC(C)n1ncn(-c2ccc(N3CCN(c4ccc(OC[C@@H]5CO[C@@](Cn6nccn6)(c6cc(Cl)ccc6Br)O5)cc4)CC3)cc2)c1=O` (some centres unmarked) [Compound 35]: 0.5 to 5 µM.
The compound `CCC(C)n1ncn(-c2ccc(N3CCN(c4ccc(OC[C@@H]5CO[C@@](Cn6cccn6)(c6cccc(C)c6)O5)cc4)CC3)cc2)c1=O` (some centres unmarked) [Compound 96] displayed an EC50 of under 0.5 µM.
The same measure for `CCC(C)n1ncn(-c2ccc(N3CCN(c4ccc(OC[C@H]5CO[C@@](Cn6nccn6)(c6ccccc6)O5)cc4)CC3)cc2)c1=O` (some centres unmarked) [Compound 188]: 5 to 30 µM; for `CCC(C)n1ncn(-c2ccc(N3CCN(c4ccc(OC[C@@H]5CO[C@@](Cn6cccn6)(c6ccc(OC(F)(F)F)cc6)O5)cc4)CC3)cc2)c1=O` (some centres unmarked) [Compound 94]: under 0.5 µM.
In turn, `CCC(C)n1ncn(-c2ccc(N3CCN(c4ccc(OC[C@@H]5CO[C@@](CC)(c6ccc(Cl)cc6Cl)O5)cc4)CC3)cc2)c1=O` (some centres unmarked) [Compound 40] had an EC50 of 0.5 to 5 µM.
The same measure for `CCC(C)n1ncn(-c2ccc(N3CCN(c4ccc(OC[C@@H]5CO[C@@](Cc6ccnnc6)(c6ccccc6Cl)O5)cc4)CC3)cc2)c1=O` (some centres unmarked) [Compound 125]: under 0.5 µM; for `CCC(C)n1ncn(-c2ccc(N3CCN(c4ccc(OC[C@@H]5CO[C@@](Cn6cccn6)(c6cccc(C(F)(F)F)c6)O5)cc4)CC3)cc2)c1=O` (some centres unmarked) [Compound 92]: under 0.5 µM.
Then `CC(C)Cn1ncn(-c2ccc(N3CCN(c4ccc(OC[C@@H]5CO[C@@](Cn6nccn6)(c6ccccc6)O5)cc4)CC3)cc2)c1=O` [Compound 19], with 0.5 to 5 µM.
Then `O=c1n(-c2ccc(N3CCN(c4ccc(OC[C@H]5CO[C@](Cn6nccn6)(c6ccccc6)C5)cc4F)CC3)cc2)cnn1CC1CCCC1` [Compound 145], with 5 to 30 µM; and `O=c1n(-c2ccc(N3CCN(c4ccc(OC[C@@H]5CO[C@@](Cn6nccn6)(c6ccccc6)O5)cc4)CC3)cc2)cnn1CC1CCNCC1` [Compound 15], with 5 to 30 µM; and `CCC(C)n1ncn(-c2ccc(N3CCN(c4ccc(OC[C@@H]5CO[C@@](CN6CCOCC6)(c6ccc(Cl)cc6Cl)O5)cc4)CC3)cc2)c1=O` (some centres unmarked) [Compound 44], with over 30 µM.
As to `CCC(C)n1ncn(-c2ccc(N3CCN(c4cc(F)c(OC[C@@H]5CO[C@@](Cn6nccn6)(c6ccccc6)O5)c(F)c4)CC3)cc2)c1=O` (some centres unmarked) [Compound 62], the EC50 lay in the range of 5 to 30 µM.
Then `CCC(CC)n1ncn(-c2ccc(N3CCN(c4ccc(OC[C@H]5CO[C@](Cn6cccn6)(c6ccccc6)O5)cc4)CC3)cc2)c1=O` [Compound 167], with under 0.5 µM.
Compound `CCC(C)n1ncn(-c2ccc(N3CCN(c4ccc(OCCO[C@@H](Cn5nccn5)c5ccccc5)cc4)CC3)cc2)c1=O` (some centres unmarked) [Compound 141] yielded an EC50 of over 30 µM.
Then `CCC(C)n1ncn(-c2ccc(N3CCN(c4ccc(OC[C@@H]5CO[C@@](Cn6cccn6)(c6cccc(Cl)c6)O5)cc4)CC3)cc2)c1=O` (some centres unmarked) [Compound 82], with under 0.5 µM.
The same measure for `CCC(CC)n1ncn(-c2ccc(N3CCN(c4ccc(OC[C@@H]5CO[C@@](Cn6nccn6)(c6ccccc6)O5)cc4C#N)CC3)cc2)c1=O` [Compound 155]: under 0.5 µM; for `CCC(C)n1ncn(-c2ccc(N3CCN(c4ccc(OC[C@@H]5CO[C@@](Cn6cccn6)(c6ccccc6OC)O5)cc4)CC3)cc2)c1=O` (some centres unmarked) [Compound 85]: 0.5 to 5 µM.
Then `CCC(C)n1ncn(-c2ccc(N3CCN(c4ccc(OC[C@@H]5CO[C@@](Cc6ccnnc6)(c6ccc(C(F)(F)F)cc6)O5)cc4)CC3)cc2)c1=O` (some centres unmarked) [Compound 134], with under 0.5 µM; and `CCC(C)n1ncn(-c2cccc(N3CCN(c4ccc(OC[C@@H]5CO[C@@](Cn6nccn6)(c6ccc(Cl)cc6Cl)O5)cc4)CC3)c2)c1=O` (some centres unmarked) [Compound 77], with over 30 µM; and `CCC(C)n1ncn(-c2ccc(N3CCN(c4ccc(OC[C@@H]5CO[C@@](Cn6nccn6)(c6cc(Cl)ccc6Cl)O5)cc4)CC3)cc2)c1=O` (some centres unmarked) [Compound 33], with 0.5 to 5 µM.
`CCC(C)n1ncn(-c2ccc(N3CCN(c4ccc(OC[C@H]5CO[C@](Cn6nccn6)(c6ccccc6)C5)cc4)CC3)cc2)c1=O` (some centres unmarked) [Compound 147] came in with an EC50 of over 30 µM.
The same measure for `CCC(CC)n1ncn(-c2ccc(N3CCN(c4ccc(OC[C@@H]5CO[C@@](Cn6nccn6)(c6ccccc6)O5)cc4)CC3)cc2)c1=O` [Compound 161]: under 0.5 µM; for `CCC(C)n1ncn(-c2ccc(N3CCN(c4ccc(OC[C@@H]5CO[C@@](Cn6nccn6)(c6ccccc6)O5)c(F)c4F)CC3)cc2)c1=O` (some centres unmarked) [Compound 63]: 5 to 30 µM.
Then `CCC(C)n1ncn(-c2ccc(N3CCN(c4ccc(OC[C@@H]5CO[C@@](Cc6ccnnc6)(c6ccccc6C)O5)cc4)CC3)cc2)c1=O` (some centres unmarked) [Compound 136], with 0.5 to 5 µM; and `CCC(C)n1ncn(-c2ccc(N3CCN(c4ccc(OC[C@@H]5CO[C@@](Cn6cccn6)(c6ccc(Cl)cc6)O5)cc4)CC3)cc2)c1=O` (some centres unmarked) [Compound 81], with under 0.5 µM; and `CCC(C)n1ncn(-c2ccc(N3CCN(c4ccc(OC[C@@H]5CO[C@@](Cn6nccn6)(c6ccc(Cl)cc6Cl)O5)nc4)CC3)cc2)c1=O` (some centres unmarked) [Compound 54], with 0.5 to 5 µM.
Then `CC[C@@H](C)n1ncn(-c2ccc(N3CCN(c4ccc(OC[C@H]5CO[C@](Cn6cccn6)(c6ccc(C#N)cc6C)O5)cc4)CC3)cc2)c1=O` [Compound 175], with 5 to 30 µM; and `CC(C)N1CCN(c2ccc(N3CCN(c4ccc(OC[C@H]5OC[C@](Cn6nccn6)(c6ccc(F)cc6F)O5)cc4)CC3)cc2)C1=O` (racemic) [Compound 203, cis (±)-1-(4-(4-(4-((4-((2H-1,2,3-triazol-2-yl)methyl)-4-(2,4-difluorophenyl)-1,3-dioxolan-2-yl)methoxy)phenyl)piperazin-1-yl)phenyl)-3-isopropylimidazolidin-2-one], with over 30 µM; and `CCC(C)n1ncn(-c2ccc(N3CCN(c4ccc(OC[C@@H]5CO[C@@](Cn6nccn6)(c6ccc(Cl)cc6Cl)O5)cn4)CC3)cc2)c1=O` (some centres unmarked) [Compound 53], with 0.5 to 5 µM.
Compound `CCC(C)n1ncn(-c2ccc(N3CCN(c4ccc(OC[C@@H]5CO[C@@](Cn6nccn6)(c6ccc(Cl)cc6Cl)O5)cc4CN)CC3)cc2)c1=O` (some centres unmarked) [Compound 55] had an EC50 of under 0.5 µM.
